Patent publication US6914045B2, “Glycopeptide antibiotics” (Wyeth Holdings Corporation, priority 2001, dated 2005)
In brackets after ≈: the same amount, converted by molar mass.

Tests used:
Test in all cases: in vitro antibacterial evaluation, MIC by broth dilution
Type in all cases: cell-based
Streptococcus sp. = details: broth dilution, 18 hours at 35° C.
Method in brief: (§1)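 Broth dilution per NCCLS standard M7-A2 in Muller-Hinton II […], with an inoculum of 5×10^5 CFU/mL and antibiotic spanning 64-0.06 μg/mL. The MIC is the lowest concentration that inhibits growth of the organism.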

Staphylococcus sp. = details: broth dilution, 18 hours at 35° C.; for MIC Staphylococcus aureus (GC 1131): strain GC 1131
Method in brief: as §1

Enterococcus sp. = details: broth dilution, 18 hours at 35° C.
Method in brief: as §1

Escherichia coli = details: 18 hours at 35° C.

- MIC Streptococcus agalactiae (GC 4564) (Streptococcus sp.): <0.06 µg/mL
- MIC Streptococcus pneumoniae (ATCC 6301) (Streptococcus sp.): <0.06 µg/mL
- MIC Streptococcus pneumoniae (GC 1894) (Streptococcus sp.): <0.06 µg/mL
- MIC Streptococcus pneumoniae (GC 4565) (Streptococcus sp.): <0.06 µg/mL
- MIC Streptococcus pyogenes (GC 4563) (Streptococcus sp.): 0.25 µg/mL (≈ 0.155 µM)
- MIC Streptococcus pneumoniae (ATCC 6301) (Streptococcus sp.; inoculum 5×10^5 CFU/mL, strain ATCC 6301): <0.06 µg/mL
- MIC Streptococcus pneumoniae (GC 1894) (Streptococcus sp.; inoculum 5×10^5 CFU/mL, strain GC 1894): <0.06 µg/mL
- MIC Streptococcus pyogenes (GC 4563) (Streptococcus sp.; inoculum 5×10^5 CFU/mL, strain GC 4563): 0.25 µg/mL (≈ 0.155 µM)
- MIC Streptococcus agalactiae (GC 4564) (Streptococcus sp.; inoculum 5×10^5 CFU/mL, strain GC 4564): <0.06 µg/mL
- MIC Streptococcus pneumoniae (GC 4565) (Streptococcus sp.; inoculum 5×10^5 CFU/mL, strain GC 4565): <0.06 µg/mL
- MIC Staphylococcus aureus (GC 1131) (Staphylococcus sp.; inoculum 5×10^5 CFU/mL): 2 µg/mL (≈ 1.24 µM)
- MIC Staphylococcus aureus (ATCC 29213) (Staphylococcus sp.; strain ATCC 29213): 2 µg/mL (≈ 1.24 µM)
- MIC Staphylococcus aureus (GC 1131) (Staphylococcus sp.): 2 µg/mL (≈ 1.24 µM)
- MIC Staphylococcus aureus (GC 3051) (Staphylococcus sp.; strain GC 3051): 2 µg/mL (≈ 1.24 µM)
- MIC Staphylococcus aureus (GC 3053) (Staphylococcus sp.; strain GC 3053): 2 µg/mL (≈ 1.24 µM)
- MIC Staphylococcus aureus (GC 4541) (Staphylococcus sp.; strain GC 4541): 2 µg/mL (≈ 1.24 µM)
- MIC Staphylococcus aureus (GC 4542) (Staphylococcus sp.; strain GC 4542): 1 µg/mL (≈ 0.62 µM)
- MIC Staphylococcus aureus-SMITH (GC 4543) (Staphylococcus sp.; strain GC 4543): 2 µg/mL (≈ 1.24 µM)
- MIC Staphylococcus aureus (GC 4544) (Staphylococcus sp.; strain GC 4544): 2 µg/mL (≈ 1.24 µM)
- MIC Staphylococcus aureus (GC 4545) (Staphylococcus sp.; strain GC 4545): 2 µg/mL (≈ 1.24 µM)
- MIC Coagulase Negative Staphylococcus (GC 4547) (Staphylococcus sp.; strain GC 4547): 2 µg/mL (≈ 1.24 µM)
- MIC Coagulase Negative Staphylococcus (GC 4548) (Staphylococcus sp.; strain GC 4548): 1 µg/mL (≈ 0.62 µM)
- MIC Coagulase Negative Staphylococcus (GC 4549) (Staphylococcus sp.; strain GC 4549): 1 µg/mL (≈ 0.62 µM)
- MIC Coagulase Negative Staphylococcus (GC 4551) (Staphylococcus sp.; strain GC 4551): 2 µg/mL (≈ 1.24 µM)
- MIC Coagulase Negative Staphylococcus (GC 6257) (Staphylococcus sp.; strain GC 6257): 0.5 µg/mL (≈ 0.31 µM)
- MIC Enterococcus avium (GC 4558) (Enterococcus sp.): 2 µg/mL (≈ 1.24 µM)
- MIC Enterococcus faecalis (ATCC 29212) (Enterococcus sp.): 2 µg/mL (≈ 1.24 µM)
- MIC Enterococcus faecalis (GC 2242) (Enterococcus sp.): 2 µg/mL (≈ 1.24 µM)
- MIC Enterococcus faecalis (GC 2691) (Enterococcus sp.): 2 µg/mL (≈ 1.24 µM)
- MIC Enterococcus faecalis (GC 3059) (Enterococcus sp.): 2 µg/mL (≈ 1.24 µM)
- MIC Enterococcus faecalis (GC 4552) (Enterococcus sp.): 2 µg/mL (≈ 1.24 µM)
- MIC Enterococcus faecalis (GC 4553) (Enterococcus sp.): 2 µg/mL (≈ 1.24 µM)
- MIC Enterococcus faecalis (GC 4554) (Enterococcus sp.): 2 µg/mL (≈ 1.24 µM)
- MIC Enterococcus faecalis (GC 6189) (Enterococcus sp.): 1 µg/mL (≈ 0.62 µM)
- MIC Enterococcus faecium (GC 2243) (Enterococcus sp.): 2 µg/mL (≈ 1.24 µM)
- MIC Enterococcus faecium (GC 4556) (Enterococcus sp.): 2 µg/mL (≈ 1.24 µM)
- MIC Enterococcus faecium (GC 4557) (Enterococcus sp.): 2 µg/mL (≈ 1.24 µM)
- MIC Enterococcus faecalis (ATCC 29212) (Enterococcus sp.; inoculum 5×10^5 CFU/mL, strain ATCC 29212): 2 µg/mL (≈ 1.24 µM)
- MIC Enterococcus faecalis (GC 2242) (Enterococcus sp.; inoculum 5×10^5 CFU/mL, strain GC 2242): 2 µg/mL (≈ 1.24 µM)
- MIC Enterococcus faecium (GC 2243) (Enterococcus sp.; inoculum 5×10^5 CFU/mL, strain GC 2243): 2 µg/mL (≈ 1.24 µM)
- MIC Enterococcus faecalis (GC 2691) (Enterococcus sp.; inoculum 5×10^5 CFU/mL, strain GC 2691): 2 µg/mL (≈ 1.24 µM)
- MIC Enterococcus faecalis (GC 3059) (Enterococcus sp.; inoculum 5×10^5 CFU/mL, strain GC 3059): 2 µg/mL (≈ 1.24 µM)
- MIC Enterococcus faecalis (GC 4552) (Enterococcus sp.; inoculum 5×10^5 CFU/mL, strain GC 4552): 2 µg/mL (≈ 1.24 µM)
- MIC Enterococcus faecalis (GC 4553) (Enterococcus sp.; inoculum 5×10^5 CFU/mL, strain GC 4553): 2 µg/mL (≈ 1.24 µM)
- MIC Enterococcus faecalis (GC 4554) (Enterococcus sp.; inoculum 5×10^5 CFU/mL, strain GC 4554): 2 µg/mL (≈ 1.24 µM)
- MIC Enterococcus faecium (GC 4556) (Enterococcus sp.; inoculum 5×10^5 CFU/mL, strain GC 4556): 2 µg/mL (≈ 1.24 µM)
- MIC Enterococcus faecium (GC 4557) (Enterococcus sp.; inoculum 5×10^5 CFU/mL, strain GC 4557): 2 µg/mL (≈ 1.24 µM)
- MIC Enterococcus avium (GC 4558) (Enterococcus sp.; inoculum 5×10^5 CFU/mL, strain GC 4558): 2 µg/mL (≈ 1.24 µM)
- MIC Enterococcus faecalis (GC 6189) (Enterococcus sp.; inoculum 5×10^5 CFU/mL, strain GC 6189): 1 µg/mL (≈ 0.62 µM)
- MIC Escherichia coli (ATCC 25922) (Escherichia coli): 64 µg/mL (≈ 39.7 µM)
- MIC Escherichia coli (GC 4559) (Escherichia coli): 64 µg/mL (≈ 39.7 µM)
- MIC Escherichia coli (GC 4560) (Escherichia coli): 4 µg/mL (≈ 2.48 µM)
Compound: CC(c1ccccc1)C1NC(=O)CNC(=O)C(CO)NC(=O)C(C(O)C2CNC(=N)N2C2OC(CO)C(O)C(O)C2O)NC(=O)C(C(O)C2CNC(=N)N2)NC(=O)C(Cc2ccc(OC3OC(CO)C(OC4OC5COC(c6ccc(C(=O)c7ccc(I)cc7)cc6)OC5C(O)C4O)C(O)C3O)cc2)NC1=O (centres unmarked) [Example 186]
- MIC Staphylococcus haemolyticus (GC 4546) (Staphylococcus sp.; strain GC 4546): 1 µg/mL (≈ 0.62 µM)
